Laboratory results taken from US20170283453A1, “COFACTOR ANALOGUES FOR METHYLTRANSFERASES” (KATHOLIEKE UNIVERSITEIT LEUVEN, priority 2014, published 2017).
Where a name gives a salt, the structure may show the parent alone.

Assays:
[1] = target: M.TaqI DNA methyltransferase (Thermus aquaticus, UniProt P14385); assay: Restriction protection assay after M.TaqI-directed DNA modification (agarose gel); format: biochemical; details: pUC19 DNA, Cutsmart buffer, 60° C., 1 hour; restriction enzyme TaqaI 1 hour; Ethidium bromide
Sequence of M.TaqI DNA methyltransferase (P14385 whole entry): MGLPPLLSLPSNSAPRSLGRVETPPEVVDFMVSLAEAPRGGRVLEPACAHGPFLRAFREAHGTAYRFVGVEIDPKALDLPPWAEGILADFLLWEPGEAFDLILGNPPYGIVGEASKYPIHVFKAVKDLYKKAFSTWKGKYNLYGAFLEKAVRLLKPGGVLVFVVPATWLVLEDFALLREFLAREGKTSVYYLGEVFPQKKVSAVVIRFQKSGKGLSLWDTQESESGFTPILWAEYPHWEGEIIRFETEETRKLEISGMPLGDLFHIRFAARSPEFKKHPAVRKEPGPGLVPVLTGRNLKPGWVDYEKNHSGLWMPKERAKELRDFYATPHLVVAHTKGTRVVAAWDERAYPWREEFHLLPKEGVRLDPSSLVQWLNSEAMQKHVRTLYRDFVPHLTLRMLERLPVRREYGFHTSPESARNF
Experimental: Adenine-N6 DNA modification by M.TaqI DNA methyltransferase: […] DNA methyltransferase targets the four-base recognition sequence 5′-TCGA-3′ and modifies the underlined adenine residue at the N6-position and was combined with (6-Azido-hex-2-yne)(5′-Deoxyadenosyl)-(L-Cysteine)sulfonium salt (see example 9 for preparation). The methyltransferase enzyme and cofactors were incubated with pUC19 DNA in “Cutsmart buffer” at 60° C. for 1 hour. To determine if protection occurred the DNA was incubated with the corresponding restriction enzyme (TaqaI) for 1 hour. Afterwards, the remaining proteins were digested with Proteinase K. The DNA samples are then placed on an agarose gel and visualized with Ethidium bromide (FIG. 1).
Adenine-N6 DNA modification by M.TaqI DNA methyltransferase: […] DNA methyltransferase targets the four-base recognition sequence 5′-TCGA-3′ and modifies the underlined adenine residue at the N6-position and was combined with Rhodamine sulfonium salt (see example 12 for preparation). The methyltransferase enzyme and cofactors were incubated with pUC19 DNA in “Cutsmart buffer” at 60° C. for 1 hour. To determine if protection occurred the DNA was incubated with the corresponding restriction enzyme (TaqaI) for 1 hour. […]

[2] = test system: M.MpeI DNA methyltransferase; assay: Restriction protection assay after M.MpeI-directed DNA modification (agarose gel); format: biochemical; details: pUC19 DNA, Cutsmart buffer, 60° C., 1 hour; restriction enzyme HhaI 1 hour; Ethidium bromide
Experimental: Cytosine DNA modification by M.MpeI DNA methyltransferase: […] DNA methyltransferase targets the two-base recognition sequence 5′-CG-3′ and modifies the underlined cytosine residue and was combined with (8-Azido-oct-2-ene)(5′-Deoxyadenosyl)-(L-Cysteine)sulfonium salt (see example 9 for preparation). The methyltransferase enzyme and cofactors were incubated with pUC19 DNA in “Cutsmart buffer” at 60° C. for 1 hour. To determine if protection occurred the DNA was incubated with the corresponding restriction enzyme (HhaI) for 1 hour. Afterwards, the remaining proteins were digested with Proteinase K. The DNA samples are then placed on an agarose gel and visualized with Ethidium bromide (FIG. 3).

plasmid DNA = assay: Super resolution microscopy of fluorescently labeled DNA; details: FIG. 5 panel C; DNA spin coated on poly-L-lysine coated cover slips
Experimental: Adenine-N6 DNA modification by M.TaqI DNA methyltransferase: […] DNA methyltransferase targets the four-base recognition sequence 5′-TCGA-3′ and modifies the underlined adenine residue at the N6-position and was combined with Rhodamine sulfonium salt (see example 12 for preparation). The methyltransferase enzyme and cofactors were incubated with pUC19 DNA in “Cutsmart buffer” at 60° C. for 1 hour. To determine if protection occurred the DNA was incubated with the corresponding restriction enzyme (TaqaI) for 1 hour. Afterwards, the remaining proteins were digested with Proteinase K. DNA samples are then placed on an agarose gel and visualized with Ethidium bromide (FIG. 4).
Fluorescent DNA was purified using DNA Cleaner & Concentrator 5 columns (Zymo Research), and the DNA was spin coated on poly-L-lysine coated cover slips and used directly for microscopy studies. (FIG. 5)

## [N-]=[N+]=NCCCC#CC[S+](C[C@H](N)C(=O)O)C[C@H]1O[C@@H](n2cnc3c(N)ncnc32)C(O)C1O (stereo partly drawn) [(6-Azido-hex-2-yne)(5′-Deoxyadenosyl)-(L-Cysteine)sulfonium Salt]
[1]
  Protection of DNA against cutting by restriction enzyme (band pattern on agarose gel): 1 strong band, corresponding to uncut DNA

## [N-]=[N+]=NCCCCCC=CC[S+](C[C@H](N)C(=O)O)C[C@H]1O[C@@H](n2cnc3c(N)ncnc32)[C@H](O)[C@@H]1O (stereo partly drawn) [(8-Azido-oct-2-ene)(5′-Deoxyadenosyl)-(L-Cysteine)sulfonium salt]
[2]
  Protection of DNA against cutting by restriction enzyme (band pattern on agarose gel): 1 strong band, corresponding to uncut DNA

## CCN(CC)c1ccc2c(-c3ccccc3C(=O)N(C)CCC(=O)NCCCCC/C=C/C[S+](C[C@H](N)C(=O)O)C[C@H]3O[C@@H](n4cnc5c(N)ncnc54)[C@@H](O)C3O)c3ccc(=[N+](CC)CC)cc-3oc2c1 (stereo partly drawn) [Rhodamine sulfonium salt]
Plasmid DNA
  Colocalization of the dye with a DNA intercalating dye (fluorescent DNA labeling): successful fluorescent DNA labeling
